The source of these data is patent US20230321101A1, “METHODS AND USES OF HALOFUGINONE” (The Regents of the University of California, priority 2020, published 2023).

The term IC50 denotes the concentration needed to halve the response being measured.

Series [1] has as its system recombinant SARS-CoV-2 spike RBD protein binding to Hep3B cells.
A further series has as its system authentic SARS-CoV-2. The series is described as follows: microbe, parasite or virus in culture. The format is cell-based. As to conditions: Vero E6.
The test system of the next series is Vero E6 cells. The series is described as follows: Cell number of Vero E6 cells treated for 24 h. The format is cell-based, African green monkey. As to conditions: Vero E6, 24 h. The protocol:
FIG. 32A and FIG. 32B. […] A-B, Measurement of authentic SARS-CoV-2 infection and cell number in Vero E6 cells treated with (A) halofuginone (HF) or (B) the 2R,3S-(+) enantiomer for 24 h. Data shown as mean±S.D.

In series [2] the test system is cell surface heparan sulfate of Hep3B cells. The series is described as follows: Heparan sulfate presentation by anti-HS mAb 10E4 staining of Hep3B cells. It counts as cell-based, human.

Turning to `O=C(C[C@H]1NCCC[C@@H]1O)Cn1cnc2cc(Br)c(Cl)cc2c1=O` [2R,3S-(+) halofuginone], the “effect on spike (RBD) protein binding” value in series [1] is “inhibited HS production and authentic SARS-CoV-2 spike RBD protein binding”. Further, the “effect on authentic SARS-CoV-2 infection” value in the series on authentic SARS-CoV-2 is listed as “inhibit SARS-CoV-2 infection”. Besides, the half-inhibitory concentration (IC50) in the series with authentic SARS-CoV-2 (read-out: IC50 of SARS-CoV-2 infectivity, enantiomer comparison) came out at 12 nM. For the same compound, the “cell proliferation (cell number)” value in the series on Vero E6 cells was “inhibit SARS-CoV-2 infection and cell proliferation”. Besides, the “effect on heparan sulfate presentation (10E4 binding)” value in series [2] is “inhibited HS production”.
